Reference: patent US12461092B2, “Screening method for APP cleavage activity-controlling substances of ADAMTS4” (SHIMADZU CORPORATION, priority 2019, dated 2025)

What was measured:
[1] = test system: human neuroblastoma BE(2)-C; test: Aβ-related peptide production in culture supernatant of BE(2)-C cells by IP-MS (Example 4); format: cell-based; conditions: for APP669 cleavage activity (on the N-terminal side): conclusion from BE(2)-C and A549 cells
Description: (§1) An Aβ-related peptide contained in the culture supernatant was measured by IP-MS corresponding to a combination of immunoprecipitation (IP) and mass spectrometry (MS). In IP, antibody immobilized beads obtained by covalent binding of anti-Aβ antibody clone 6E10 (BioLegend) to Dynabeads Epoxy (Thermo Fisher Scientific) were used.
(§2) The cryopreserved culture supernatant was thawed, and 250 μL of a reaction liquid containing internal standard peptides [800 mM GlcNAc, 0.2/a (w/v) NTM, 0.2% (w/v) DDM, 300 mM NaCl, and 100 mM Tris-HCl buffer (pH 7.4)] was mixed with 250 μL of the culture supernatant. The thus obtained mixture was mixed with the antibody immobilized beads, followed by an antigen antibody reaction at 4° C. for 1 hour. As the internal standard peptides, 22 μM stable isotope labeled Aβ1-38 and 100 μM stable isotope labeled A31-15 were used.
(§3) After the antigen antibody reaction, the antibody immobilized beads were washed with a first washing buffer [washed once with 100 μL of the first washing buffer (0.1% DDM, 0.1% NTM, 50 mM Tris-HCl (pH 7.4) and 150 mM NaCl), and then once with 50 μL of a 50 mM ammonium acetate buffer]. Thereafter, the Aβ-related peptide captured by the antibody immobilized beads was eluted with a glycine buffer containing DDM (50 mM glycine buffer containing 0.1% of DDM, pH 2.8). To the thus obtained eluate, Tris buffer containing DDM [800 mM GlcNAc, 0.2% (w/v) DDM, 300 mM NaCl, and 300 mM Tris-HCl buffer (pH 7.4)] was added to restore the pH to neutral (pH 7.4). Thereafter, the neutral eluate was contacted with the antibody immobilized beads at 4° C. for 1 hour again to cause the antigen antibody reaction of the Aβ-related peptide. The resultant was washed with a second washing buffer [washed twice with 100 μL of the second washing buffer (0.1% DDM, 150 mM Tris-HCl (pH 7.4), and 150 mM NaCl), and once with 50 μL of a 50 mM ammonium acetate buffer], and then, the Aβ-related peptide captured by the antibody immobilized beads was eluted with an eluent (5 mM HCl, 0.1 mM methionine, and 70% (v/v) acetonitrile). In this manner, each eluate containing the Aβ-related peptide was obtained through two-stage IP operation.
(§4) As a matrix for linear TOF, α-cyano-4-hydroxycinnamic acid (CHCA) was used. A matrix solution was prepared by dissolving 1 mg of CHCA in 1 mL of 70% (v/v) acetonitrile. As a matrix additive, 0.4% (w/v) methylenediphosphonic acid (MDPNA) was used. A 1 mg/mL CHCA solution and 0.4% (w/v) MDPNA were mixed in equivalent amounts to obtain a matrix/matrix additive solution [0.5 mg/mL CHCA/0.2% (w/v) MDPNA].
(§5) Precedently, 0.5 μL of the matrix/matrix additive solution was added in a dropwise manner into respective wells of μFocus MALDI Plate™ 900 μm (Hudson Surface Technology, Inc., Fort Lee, NJ), and then dried.
(§6) Each eluate resulting from IP was added in a dropwise manner into 4 wells of the μFocus MALDI Plate™ 900 μm, and then dried.
(§7) Mass spectral data was obtained by linear TOF in the positive ion mode using AXIMA Performance (Shimadzu/KRATOS, Manchester, UK). An m/z value of linear TOF was indicated as an average mass of peaks. The m/z value was calibrated using, as external standards, human angiotensin II, human ACTH fragment 18-39, bovine insulin oxidized beta-chain, and bovine insulin.
(§8) In the mass spectrum, signal intensity of each Aβ-related peptide was normalized using an internal standard peptide. Thereafter, an average of four normalized intensities obtained from one sample was obtained, which was evaluated as a production amount of the Aβ-related peptide. When there were two or more data not reaching a lower detection limit (S/N<3), it was regarded as undetectable.
(§9) A metalloprotease inhibitor, 25 μM GM6001 (Cosmobio) or 10 μM INCB3619 (NPL 8), was caused to act on, or DMSO was added as a control to human neuroblastoma BE(2)-C and adenocarcinomic human alveolar basal epithelial cell A549, and the resultant cells were incubated for 96 hours. […]

[2] = test system: adenocarcinomic human alveolar basal epithelial cell A549; test: Aβ-related peptide production in culture supernatant of A549 cells by IP-MS (Example 4); format: cell-based; conditions: 96 hours, DMSO control
Description: as §1, §2, §3, §4, §5, §6, §7, §8, §9

[3] = test system: A549-wild type (wt) cells; test: Aβ-related peptide production in culture supernatant of A549-wt cells by IP-MS (Example 1); format: cell-based, human; conditions: 25 μM, 96 hours, compared with DMSO control
Description: After the antigen antibody reaction, the antibody immobilized beads were washed with a first washing buffer [washed once with 100 μL of the first washing buffer (0.1% DDM, 0.1% NTM, 50 mM Tris-HCl (pH 7.4) and 150 mM NaCl), and then once with 50 μL of a 50 mM ammonium acetate buffer]. Thereafter, the Aβ-related peptide captured by the antibody immobilized beads was eluted with a glycine buffer containing DDM (50 mM glycine buffer containing 0.1% of DDM, pH 2.8). To the thus obtained eluate, Tris buffer containing DDM [800 mM GlcNAc, 0.2% (w/v) DDM, 300 mM NaCl, and 300 mM Tris-HCl buffer (pH 7.4)] was added to restore the pH to neutral (pH 7.4). Thereafter, the neutral eluate was contacted with the antibody immobilized beads at 4° C. for 1 hour again to cause the antigen antibody reaction of the Aβ-related peptide. The resultant was washed with a second washing buffer [washed twice with 100 μL of the second washing buffer (0.1% DDM, 150 mM Tris-HCl (pH 7.4), and 150 mM NaCl), and once with 50 μL of a 50 mM ammonium acetate buffer], and then, the Aβ-related peptide captured by the antibody immobilized beads was eluted with an eluent (5 mM HCl, 0.1 mM methionine, and 70% (v/v) acetonitrile). In this manner, each eluate containing the Aβ-related peptide was obtained through two-stage IP operation. […]

[4] = test system: A549-ADAMTS4 KO cells; test: Aβ-related peptide production in culture supernatant of A549-ADAMTS4 KO cells by IP-MS (Example 1); format: cell-based, human; conditions: 25 μM, 96 hours, compared with DMSO control
Description: In A549 cells, an influence on production of APP669-x caused by ADAMTS4 knockout using CRISPR/Cas9 (clustered regularly interspaced short palindromic repeats/CRISPR associated proteins) and guide RNA (gRNA), and a treatment with GM6001, a metalloprotease inhibitor, was evaluated. A549 cell is human adenocarcinomic alveolar basal epithelial cell. The gRNA was designed using CRISPR Search (https://www.sanger.ac.uk/htgt/wge/find_crisprs).
Vectors in which cDNAs respectively encoding paired gRNAs targeting ADAMTS4 were inserted respectively into vector px335 (Addgene 042335) expressing SpCas9 nickase and gRNA and retrovirus-derived vector pBabe Puro U6 BbsI (donated by Professor Dario Alessi, Dundee University) were constructed.
These vectors were transfected, and the resultant transfectants were subjected to selection with puromycin for monocloning. A genome was extracted from each monoclonal cell, and a genome fragment including a gene region targeted by gRNA was amplified by PCR to be subjected to sanger sequencing. Primers used for amplifying the genome fragment were as follows: […]
As a result of analysis of a plurality of monoclonal cells, it was presumed that ADAMTS4 gene region of A549 cell has three alleles. Then, a monoclonal cell respectively having deletion of 16 bp, 29 bp and 20 bp in the gene region of ADAMTS4 gene as shown in FIG. 2 was obtained. Since none of these is a multiple of 3, it is presumed that normal ADAMTS4 protein is not expressed. Therefore, it was regarded that this cell is A549 cell having endogenous ADAMTS4 knockout (KO) (A549-ADAMTS4 KO cell).
A metalloprotease inhibitor, GM6001 (25 μM), or dimethylsulfoxide (DMSO) used as a control was added to each of A549-ADAMTS4 KO cells and A549-wild type (wt) cells, and the resultant cells were incubated for 96 hours. Thereafter, a culture supernatant was collected, and stored at −80° C. until measurement.
as §1
as §2, with “used. […]” for “used.”

[5] = test system: APP stable HEK cells; test: Aβ-related peptide production in culture supernatant of APP stable HEK cells by IP-MS (Example 4); format: cell-based, human; conditions: 25 μM
Description: As a matrix for linear TOF, α-cyano-4-hydroxycinnamic acid (CHCA) was used. A matrix solution was prepared by dissolving 1 mg of CHCA in 1 mL of 70% (v/v) acetonitrile. As a matrix additive, 0.4% (w/v) methylenediphosphonic acid (MDPNA) was used. […]
In the mass spectrum, signal intensity of each Aβ-related peptide was normalized using an internal standard peptide. Thereafter, an average of four normalized intensities obtained from one sample was obtained, which was evaluated as a production amount of the Aβ-related peptide. […]

[6] = BE(2)-C cells, 10 μM, 96 hours, DMSO control
[7] = BE(2)-C cells, 25 μM, 96 hours, DMSO control

**Q.** `COC(=O)N1CC2(CC2)C[C@H](C(=O)NO)[C@H]1C(=O)N1CC=C(c2ccccc2)CC1` [INCB3619] was tested. Which “production amount of APP669-709 (Aβ(3-38))” value [1, 6] did it give?
**A.** rather slightly decreased

**Q.** What about the “production amount of APP669-711 (Aβ(−3-40))” value [1, 6] of the same molecule?
**A.** rather slightly decreased

**Q.** What about the “APP669 cleavage activity (on the N-terminal side)” value ([1]; 10 μM) of the same molecule?
**A.** low effect of decreasing

**Q.** And the “production amount of APP669-709 (Aβ(3-38))” value ([2]; 10 μM)?
**A.** not changed

**Q.** And the “production amount of APP669-711 (Aβ(−3-40))” value ([2]; 10 μM)?
**A.** not changed

**Q.** Which results are given for `CNC(=O)[C@H](Cc1c[nH]c2ccccc12)NC(=O)[C@@H](CC(=O)NO)CC(C)C` [GM6001]?
**A.** production amount of APP669-709 (Aβ(−3-38)) [3]: tended to be decreased to substantially a half; production amount of APP669-711 (Aβ(−3-40)) [3]: tended to be decreased to substantially a half; production amount of Aβ1-38 [3]: tended to be rather increased; production amount of Aβ1-40 [3]: tended to be rather increased; production amount of APP669-709 (Aβ(−3-38)) [4]: tended to be decreased to substantially a half; production amount of APP669-711 (Aβ(−3-40)) [4]: tended to be decreased to substantially a half; production amount of Aβ1-38 [4]: tended to be rather increased; production amount of Aβ1-40 [4]: tended to be rather increased; production amount of APP669-709 (Aβ(3-38)) [1, 7]: decreased; production amount of APP669-711 (Aβ(−3-40)) [1, 7]: decreased; production amount of Aβ1-38 [1, 7]: not decreased; production amount of Aβ1-40 [1, 7]: not decreased; APP669 cleavage activity (on the N-terminal side) ([1]; 25 μM): decreases; production amount of APP669-709 (Aβ(3-38)) ([2]; 25 μM): decreased; production amount of APP669-711 (Aβ(−3-40)) ([2]; 25 μM): decreased; production amount of Aβ1-38 ([2]; 25 μM): not decreased; production amount of Aβ1-40 ([2]; 25 μM): not decreased; production amount of APP669-709 (Aβ(3-38)) [5]: decreased; production amount of APP669-711 (Aβ(−3-40)) [5]: decreased; production amount of Aβ1-38 [5]: not decreased; production amount of Aβ1-40 [5]: not decreased
